Literature values in US20040265231A1, “Use of antioxidants to mitigate radioimmunotherapy-induced radiation toxicity” (priority 1999, published 2004).

Columns and labels:
[1] = for radioprotective effect (frequency of micronuclei and chromosomal aberration post-radiation): murine study, gamma-ray

Compound	radioprotection against tissue incorporated I5I (in vivo)	radioprotective effect against 210Po (alpha emission) (in vivo)	radioprotective effect (frequency of micronuclei and chromosomal aberration post-radiation) [1]	radioprotective effect of vitamin alone ([1]; rats and mice)	radioprotective effect against internalized 131I and 125I (dietary and injected)
vitamin A	effective radioprotector	not against ^210Po	–	–	–
vitamin E	–	–	exhibited radioprotective effects	ineffective	–
O=C1O[C@H]([C@@H](O)CO)C(O)=C1O [vitamin C, L-ascorbic acid]	–	not against alpha emission from ^210Po	exhibited radioprotective effects	–	exhibited radioprotective effects
